In US20190352288A1, “MATRIX METALLOPROTEINASE (MMP) INHIBITORS AND METHODS OF USE THEREOF” (Foresee Pharmaceuticals Co., Ltd., priority 2018, published 2019):

Experiments:
Assay type in all cases: biochemical
Conditions in all cases: Table 2 selectivity profile
recombinant human MMP-9 = recombinant human MMP-9 (Homo sapiens, UniProt P14780); experiment: MMP selectivity assay, MMP-9
Description: (§1) The inhibitory effect of compounds on the rate of cleaving fluorogenic MMP substrate (Enzo, BML-P128) by recombinant human MMP-12 catalytic domain (Enzo, BML-SE138) was carried out by methods known in the art. Briefly, to each well of a 96-well black opaque plate, all the reagents were sequentially added by pipetting, and the final reaction contained 4 nM of recombinant human MMP-12 catalytic domain, 4 μM of fluorogenic MMP substrate, and various concentrations (0.15 nM to 10,000 nM) of tested compound dilutions in HEPES buffer (pH 7.5) containing 10 mM of CaCl2), 0.01% Brij® 35 (polyoxyethylene (23) lauryl ether), and 0.1 mg/ml of BSA.
(§2) The enzyme and compounds were pre-incubated on a shaker to mix in wells. After an hour of mixing, fluorogenic substrate was added to each well. Reaction without enzyme was used as a blank control in the plate. The plate was then fed into a plate reader to measure fluorescence intensity at Excitation/Emission wavelengths of 340 nm/440 nm every 10 mins for at least 1 hour at 37° C. The IC50 of each compound in MMP-12 inhibition was determined by using a readout obtained at time point 30 minutes.
(§3) The MMP selectivity assay was performed by using other recombinant human MMPs, including MMP-1, MMP-2, MMP-3, MMP-7, MMP-8, MMP-9, MMP-10, MMP-13, and MMP-14. The IC50 of the compounds for the other recombinant human MMPs was determined as described above in Example 1, and are shown in Table 2.

recombinant human MMP-13 = recombinant human MMP-13 (Homo sapiens, UniProt P45452); experiment: MMP selectivity assay, MMP-13
Description: as §1, §2, §3

recombinant human MMP-10 = recombinant human MMP-10 (Homo sapiens, UniProt P09238); experiment: MMP selectivity assay, MMP-10
Sequence of recombinant human MMP-10 (P09238 99-476): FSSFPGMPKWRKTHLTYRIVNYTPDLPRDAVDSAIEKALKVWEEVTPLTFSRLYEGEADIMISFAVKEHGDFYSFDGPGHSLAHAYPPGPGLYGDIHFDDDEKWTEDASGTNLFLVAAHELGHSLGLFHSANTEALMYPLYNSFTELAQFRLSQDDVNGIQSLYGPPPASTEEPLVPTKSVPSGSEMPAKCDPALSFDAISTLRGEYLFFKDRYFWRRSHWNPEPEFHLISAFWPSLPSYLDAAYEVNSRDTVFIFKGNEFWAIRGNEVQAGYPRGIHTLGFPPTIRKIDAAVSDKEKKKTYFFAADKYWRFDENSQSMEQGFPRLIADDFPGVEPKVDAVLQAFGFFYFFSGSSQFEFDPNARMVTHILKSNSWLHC
Description: as §1, §2, §3

recombinant human MMP-1 = molecular target: T1, recombinant human MMP-1 (Homo sapiens, UniProt P03956); experiment: MMP selectivity assay, MMP-1
T1 sequence (P03956 100-469): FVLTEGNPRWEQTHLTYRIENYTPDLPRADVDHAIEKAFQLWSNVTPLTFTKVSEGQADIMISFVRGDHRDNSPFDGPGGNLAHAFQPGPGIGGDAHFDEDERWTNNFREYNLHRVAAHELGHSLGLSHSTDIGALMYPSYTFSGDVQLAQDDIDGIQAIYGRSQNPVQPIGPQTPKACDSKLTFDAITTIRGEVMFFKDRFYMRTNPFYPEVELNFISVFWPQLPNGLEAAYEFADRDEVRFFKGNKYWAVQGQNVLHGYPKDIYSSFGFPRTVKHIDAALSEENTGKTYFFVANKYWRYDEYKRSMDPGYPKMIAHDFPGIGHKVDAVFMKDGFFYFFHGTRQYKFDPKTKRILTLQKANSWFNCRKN
Description: as §1, §2, §3

recombinant human MMP-8 = recombinant human MMP-8 (Homo sapiens, UniProt P22894); experiment: MMP selectivity assay, MMP-8
Sequence of recombinant human MMP-8 (P22894 101-467): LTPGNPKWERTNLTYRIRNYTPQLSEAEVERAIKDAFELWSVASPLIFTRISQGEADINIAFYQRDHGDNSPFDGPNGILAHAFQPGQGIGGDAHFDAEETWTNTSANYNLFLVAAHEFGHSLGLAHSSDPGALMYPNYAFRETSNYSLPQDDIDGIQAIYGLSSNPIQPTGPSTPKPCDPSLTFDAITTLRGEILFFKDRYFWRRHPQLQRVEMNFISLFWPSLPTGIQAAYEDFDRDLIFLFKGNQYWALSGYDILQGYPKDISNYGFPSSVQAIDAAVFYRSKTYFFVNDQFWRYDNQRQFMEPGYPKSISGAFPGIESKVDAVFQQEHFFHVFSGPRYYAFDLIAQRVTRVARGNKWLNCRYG
Description: as §1, §2, §3

recombinant human MMP-14 = recombinant human MMP-14 (Homo sapiens, UniProt P50281); experiment: MMP selectivity assay, MMP-14
Description: as §1, §2, §3

recombinant human MMP-7 = molecular target: T2, recombinant human MMP-7 (Homo sapiens, UniProt P09237); experiment: MMP selectivity assay, MMP-7
T2 sequence (P09237 95-267): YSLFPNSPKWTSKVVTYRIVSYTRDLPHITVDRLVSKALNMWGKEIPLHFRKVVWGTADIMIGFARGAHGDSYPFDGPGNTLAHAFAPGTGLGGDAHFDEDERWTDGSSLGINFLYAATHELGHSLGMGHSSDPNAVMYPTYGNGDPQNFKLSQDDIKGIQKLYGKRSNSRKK
Description: as §1, §2, §3

recombinant human MMP-2 = molecular target: T3, recombinant human MMP-2 (Homo sapiens, UniProt P08253); experiment: MMP selectivity assay, MMP-2
T3 sequence (P08253 110-660): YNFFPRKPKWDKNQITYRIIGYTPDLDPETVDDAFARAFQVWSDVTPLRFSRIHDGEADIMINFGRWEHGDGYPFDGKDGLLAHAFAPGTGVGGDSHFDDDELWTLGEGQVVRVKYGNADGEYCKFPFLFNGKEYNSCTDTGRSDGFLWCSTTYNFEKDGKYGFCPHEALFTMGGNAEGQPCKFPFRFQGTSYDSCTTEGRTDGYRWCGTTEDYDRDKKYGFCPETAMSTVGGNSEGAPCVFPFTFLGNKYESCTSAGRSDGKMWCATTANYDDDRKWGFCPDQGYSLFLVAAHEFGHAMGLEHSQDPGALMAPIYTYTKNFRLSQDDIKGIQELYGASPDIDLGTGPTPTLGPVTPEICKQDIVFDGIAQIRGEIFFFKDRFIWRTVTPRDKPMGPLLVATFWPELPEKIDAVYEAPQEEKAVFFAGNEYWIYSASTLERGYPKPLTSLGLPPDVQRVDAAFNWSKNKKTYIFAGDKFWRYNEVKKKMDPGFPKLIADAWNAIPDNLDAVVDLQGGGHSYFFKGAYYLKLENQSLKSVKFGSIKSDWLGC
Description: as §1, §2, §3

recombinant human MMP-3 = recombinant human MMP-3 (Homo sapiens, UniProt P08254); experiment: MMP selectivity assay, MMP-3
Sequence of recombinant human MMP-3 (P08254 100-477): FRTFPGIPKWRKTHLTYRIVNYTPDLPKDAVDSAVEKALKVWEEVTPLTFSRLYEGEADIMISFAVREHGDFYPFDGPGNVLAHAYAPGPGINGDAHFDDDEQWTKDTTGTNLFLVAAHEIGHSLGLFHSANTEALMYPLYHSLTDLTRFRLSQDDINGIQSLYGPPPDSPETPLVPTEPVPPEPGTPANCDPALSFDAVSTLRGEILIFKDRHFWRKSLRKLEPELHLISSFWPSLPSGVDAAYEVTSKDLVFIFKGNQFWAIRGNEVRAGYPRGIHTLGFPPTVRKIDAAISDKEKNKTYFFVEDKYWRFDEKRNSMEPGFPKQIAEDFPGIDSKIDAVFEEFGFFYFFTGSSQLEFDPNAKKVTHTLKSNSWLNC
Description: as §1, §2, §3

Sequence of recombinant human MMP-9 (P14780 94-707): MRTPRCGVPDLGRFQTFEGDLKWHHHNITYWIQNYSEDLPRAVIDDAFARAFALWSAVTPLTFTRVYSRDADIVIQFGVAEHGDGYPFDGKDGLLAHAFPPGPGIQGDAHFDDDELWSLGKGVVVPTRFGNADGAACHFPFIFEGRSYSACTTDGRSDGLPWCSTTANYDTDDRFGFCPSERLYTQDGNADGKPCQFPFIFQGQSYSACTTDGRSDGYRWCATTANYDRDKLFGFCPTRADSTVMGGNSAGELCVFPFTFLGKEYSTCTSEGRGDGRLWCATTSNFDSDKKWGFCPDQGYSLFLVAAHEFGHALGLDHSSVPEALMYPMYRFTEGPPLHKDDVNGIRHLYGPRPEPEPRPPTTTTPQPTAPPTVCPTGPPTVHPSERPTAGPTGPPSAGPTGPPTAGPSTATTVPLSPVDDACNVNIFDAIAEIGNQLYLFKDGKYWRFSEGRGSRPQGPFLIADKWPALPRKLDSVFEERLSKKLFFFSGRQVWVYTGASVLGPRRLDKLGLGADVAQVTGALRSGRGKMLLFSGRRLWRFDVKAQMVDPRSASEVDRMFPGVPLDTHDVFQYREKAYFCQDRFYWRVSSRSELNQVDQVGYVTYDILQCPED

Compound | IC50 (recombinant human MMP-9) [nM] | IC50 (recombinant human MMP-13) [nM] | IC50 (recombinant human MMP-10) [nM] | IC50 (recombinant human MMP-1) [nM] | IC50 (recombinant human MMP-8) [nM] | IC50 (recombinant human MMP-14) [nM] | IC50 (recombinant human MMP-7) [nM] | IC50 (recombinant human MMP-2) [nM] | IC50 (recombinant human MMP-3) [nM]
Cc1cc(COc2ccc(Sc3cnn(C)c3C3NC(=O)NC3=O)cc2)ccn1 (stereo not drawn) [OC-12] | 1000 to 10000 | 100 to 1000 | 1000 to 10000 | > 10000 | 100 to 1000 | 1000 to 10000 | > 10000 | 100 to 1000 | 1000 to 10000
O=C1NC(=O)C(c2sccc2Sc2ccc(OCc3cccc(CO)c3)cc2)N1 (stereo not drawn) [TC4] | 1000 to 10000 | 1000 to 10000 | 1000 to 10000 | > 10000 | 100 to 1000 | 1000 to 10000 | > 10000 | 1000 to 10000 | 100 to 1000
CCC1(c2cnccc2Sc2ccc(OCc3cccc(C)c3)cc2)NC(=O)NC1=O (stereo not drawn) [PC-22] | 1000 to 10000 | 100 to 1000 | 1000 to 10000 | > 10000 | 1000 to 10000 | 1000 to 10000 | > 10000 | 1000 to 10000 | 100 to 1000
Cc1cc(COc2ccc(Sc3ccncc3C3NC(=O)NC3=O)cc2C)ccn1 (stereo not drawn) [PC-48] | 1000 to 10000 | 100 to 1000 | 1000 to 10000 | > 10000 | 1000 to 10000 | > 10000 | > 10000 | 1000 to 10000 | 1000 to 10000
O=C1NC(=O)C(c2sccc2Sc2ccc(OCc3ccccc3CO)cc2)N1 (stereo not drawn) [TC5] | 1000 to 10000 | > 10000 | 1000 to 10000 | > 10000 | 1000 to 10000 | > 10000 | > 10000 | 1000 to 10000 | 1000 to 10000

Other lines, results leading:

IC50 (recombinant human MMP-9) [nM] | IC50 (recombinant human MMP-13) [nM] | IC50 (recombinant human MMP-10) [nM] | IC50 (recombinant human MMP-1) [nM] | IC50 (recombinant human MMP-8) [nM] | IC50 (recombinant human MMP-14) [nM] | IC50 (recombinant human MMP-7) [nM] | IC50 (recombinant human MMP-2) [nM] | IC50 (recombinant human MMP-3) [nM] | Compound
1000 to 10000 | 100 to 1000 | 1000 to 10000 | > 10000 | 100 to 1000 | 1000 to 10000 | > 10000 | 100 to 1000 | 100 to 1000 | Cc1cc(COc2ccc(Sc3ccncc3C3NC(=O)NC3=O)c(F)c2)ccn1 (stereo not drawn) [PC-50]
1000 to 10000 | 100 to 1000 | 1000 to 10000 | > 10000 | 100 to 1000 | 1000 to 10000 | 1000 to 10000 | 1000 to 10000 | 1000 to 10000 | Cc1cc(COc2ccc(Sc3ccncc3C3NC(=O)NC3=O)c(Cl)c2)ccn1 (stereo not drawn) [PC-51]
1000 to 10000 | 100 to 1000 | 1000 to 10000 | > 10000 | 100 to 1000 | > 10000 | > 10000 | 100 to 1000 | 1000 to 10000 | Cc1cc(COc2ccc(Sc3ncoc3C3NC(=O)NC3=O)cc2)ccn1 (stereo not drawn) [OC-7]
1000 to 10000 | 100 to 1000 | 1000 to 10000 | > 10000 | 100 to 1000 | 100 to 1000 | > 10000 | 100 to 1000 | 1000 to 10000 | Cc1cc(COc2ccc(Sc3ncn(C)c3C3NC(=O)NC3=O)cc2)ccn1 (stereo not drawn) [OC-13]
1000 to 10000 | 1000 to 10000 | 1000 to 10000 | > 10000 | 1000 to 10000 | > 10000 | > 10000 | 1000 to 10000 | 100 to 1000 | O=C1NC(=O)C(c2ccncc2Sc2ccc(OCc3cccc(CO)c3)cc2)N1 (stereo not drawn) [PC-13]
1000 to 10000 | 100 to 1000 | 1000 to 10000 | > 10000 | 100 to 1000 | 1000 to 10000 | > 10000 | 1000 to 10000 | 1000 to 10000 | NC(=O)c1cccc(COc2ccc(Sc3ccncc3C3NC(=O)NC3=O)cc2)c1 (stereo not drawn) [PC-28]
100 to 1000 | 10 to 100 | 100 to 1000 | > 10000 | 10 to 100 | 100 to 1000 | 1000 to 10000 | 100 to 1000 | 100 to 1000 | Cc1cc(COc2ccc(Sc3ccsc3C3NC(=O)NC3=O)cc2)ccn1 (stereo not drawn) [TC8]
